Source: patent publication US20230277534A1 (Plexxikon Inc., priority 2011, published 2023)

Assays:
[1] = tested on: COLO205 colon adenocarcinoma cells (B-Raf V600E mutation); assay: COLO205 cell growth inhibition (ATPlite); assay type: cell-based; conditions: Homo sapiens, COLO 205, 72 h, 3 days
Experimental: Compounds are assessed in a variety of cell based assays.
On day 1, cells are counted, then centrifuged in a conical tube for 5 minutes at 1000 rpm.
On day 2, compound at a maximum concentration of 5 mM is serially diluted 1:3 (e.g. 10 μL with 30 μL dimethyl sulfoxide) for a total of 8 point titration with DMSO as a control. A 1 μL aliquot of each dilution point and control is added to 249 μL growth media and 50 μL is added to a well containing cells, providing 10 μM compound at the maximum concentration point. The cells are incubated for 3 days at 37° C. in 5% CO2.
ATPlite is added 25 μL to each well, shake for 2 minutes, and the cells are incubated at room temperature for 10 minutes, then luminescence is read on Safire reader. The measured luminescence correlates directly with cell number, such that the reading as a function of compound concentration is used to determine the IC50 value.

[2] = molecular target: B-Raf V600E (Homo sapiens (Human), UniProt P15056, V600E); assay: B-Raf V600E kinase biochemical activity assay (AlphaScreen, biotin-MEK1 substrate); conditions: 100 μM ATP
B-Raf V600E, sequence (P15056 whole entry V600E): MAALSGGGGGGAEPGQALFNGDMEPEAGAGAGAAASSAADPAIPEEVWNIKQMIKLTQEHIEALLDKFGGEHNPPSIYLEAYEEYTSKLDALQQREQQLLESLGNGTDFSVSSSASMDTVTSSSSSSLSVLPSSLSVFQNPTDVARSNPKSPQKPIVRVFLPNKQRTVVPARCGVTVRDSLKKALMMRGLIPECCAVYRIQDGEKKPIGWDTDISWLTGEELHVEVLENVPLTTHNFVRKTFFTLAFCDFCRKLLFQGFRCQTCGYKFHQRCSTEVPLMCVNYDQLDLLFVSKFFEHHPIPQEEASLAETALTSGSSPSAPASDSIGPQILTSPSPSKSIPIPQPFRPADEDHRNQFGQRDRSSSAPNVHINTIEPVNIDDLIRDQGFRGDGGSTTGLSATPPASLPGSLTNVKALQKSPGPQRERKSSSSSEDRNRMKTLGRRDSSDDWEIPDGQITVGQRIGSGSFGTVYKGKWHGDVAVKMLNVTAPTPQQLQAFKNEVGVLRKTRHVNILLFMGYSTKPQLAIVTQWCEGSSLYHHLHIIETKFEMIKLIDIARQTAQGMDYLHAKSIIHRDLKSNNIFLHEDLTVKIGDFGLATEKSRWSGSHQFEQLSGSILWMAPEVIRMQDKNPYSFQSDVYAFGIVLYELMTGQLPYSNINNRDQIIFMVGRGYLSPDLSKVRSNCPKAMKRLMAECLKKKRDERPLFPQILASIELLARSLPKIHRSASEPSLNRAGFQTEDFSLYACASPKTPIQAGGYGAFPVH
Experimental: Assays for biochemical and cell based activity are known in the art, for example, as described in PCT publication WO 2007/002433, the disclosure of which is hereby incorporated by reference as it relates to such assays. For example, the biochemical activity IC50 values are determined with respect to inhibition of B-Raf V600E kinase activity or p-Erk kinase activity, where inhibition of phosphorylation of a peptide substrate is measured as a function of compound concentration. Compounds to be tested are diluted in dimethyl sulfoxide to a concentration of 0.1 mM. These are serially diluted 15 μL into 30 μL of dimethyl sulfoxide seven times in 96 well plates for a total of 8 dilution points, and for each dilution point 1 μL is added to a well of an assay plate. Plates are prepared such that each well in a 384 well plate contains 1 μL of compound in 10 μL volume with 0.1 ng Raf enzyme (i.e. any of B-Raf, c-Raf-1 or B-Raf V600E, Upstate Biotechnology or prepared by methods known to one of skill in the art), 50 mM HEPES, pH 7.0, 50 mM NaCl, 2 mM MgCl2, 1 mM MnCl2, 0.01% Tween-20, 1 mM DTT, and 100 nM biotin-MEK1 as substrate. The reaction is started with addition of 10 μL of 200 μM ATP (i.e. final 100 μM ATP). After incubation of the kinase reaction for 45 minutes at room temperature, 5 μL/well of Stop Solution is added (25 mM Hepes pH 7.5, 100 mM EDTA, 0.01% BSA with donor beads (Streptavidin coated beads, Perkin Elmer), acceptor beads (Protein A coated, Perkin Elmer), and anti phosphor MEK1/2 antibody (CellSignal), each at final concentration 10 μg/mL). The plates are incubated for 3 hours at room temperature and read on Envision reader (Perkin Elmer). Phosphorylation of Mek1 results in binding of the anti-phosphor-MEK1/2antibody and association of the donor and acceptor beads such that signal correlates with kinase activity. The signal vs. compound concentration is used to determine the IC50.

Structure (SMILES)	IC50 [1] [µM]	IC50 [2] [µM]
CCNS(=O)(=O)Nc1ccc(F)c(C(=O)c2c[nH]c3ncc(-c4cnc(C5CC5)nc4)cc23)c1F [Compound P-0335, [5-(2-cyclopropylpyrimidin-5-yl)-1H-pyrrolo[2,3-b]pyridin-3-yl]-[3-(ethylsulfamoylamino)-2,6-difluoro-phenyl]methanone]	< 1	< 0.1
CCC(C)S(=O)(=O)Nc1cccc(C(=O)c2c[nH]c3ncc(-c4cnc(N5CCOCC5)nc4)cc23)c1F (stereo not shown) [Compound P-0236, N-[2-fluoro-3-[5-(2-morpholinopyrimidin-5-yl)-1H-pyrrolo[2,3-b]pyridine-3-carbonyl]phenyl]butane-2-sulfonamide]	< 1	< 0.1
CCN(C)S(=O)(=O)Nc1cccc(C(=O)c2c[nH]c3ncc(-c4cnc(C#N)nc4)cc23)c1F [Compound P-0100, 5-(2-cyanopyrimidin-5-yl)-3-[3-[[ethyl(methyl)sulfamoyl]amino]-2-fluoro-benzoyl]-1H-pyrrolo[2,3-b]pyridine]	> 1	< 0.1
CCN(C)S(=O)(=O)Nc1ccc(F)c(C(=O)c2c[nH]c3ncc(-c4cnc(N(C)C)nc4)cc23)c1F [Compound P-0292, 5-[2-(dimethylamino)pyrimidin-5-yl]-3-[3-[[ethyl(methyl)sulfamoyl]amino]-2,6-difluoro-benzoyl]-1H-pyrrolo[2,3-b]pyridine]	< 1	
CCC(C)S(=O)(=O)Nc1cccc(C(=O)c2c[nH]c3ncc(-c4cnc(C5CC5)nc4)cc23)c1F (stereo not shown) [Compound P-0228, N-[3-[5-(2-cyclopropylpyrimidin-5-yl)-1H-pyrrolo[2,3-b]pyridine-3-carbonyl]-2-fluoro-phenyl]butane-2-sulfonamide]	< 1	
CC(C)CN(C)S(=O)(=O)Nc1cccc(C(=O)c2c[nH]c3ncc(I)cc23)c1F [Compound P-0070, 3-[2-fluoro-3-[[isobutyl(methyl)sulfamoyl]amino]benzoyl]-5-iodo-1H-pyrrolo[2,3-b]pyridine]	> 1	
COC(=O)CCS(=O)(=O)Nc1cccc(C(=O)c2c[nH]c3ncc(-c4cnc(OC)nc4)cc23)c1F [Compound P-0066, methyl 3-[[2-fluoro-3-[5-(2-methoxypyrimidin-5-yl)-1H-pyrrolo[2,3-b]pyridine-3-carbonyl]phenyl]sulfamoyl]propanoate]		< 0.1
CCNS(=O)(=O)Nc1cccc(C(=O)c2c[nH]c3ncc(I)cc23)c1F [Compound P-0069, [3-(ethylsulfamoylamino)-2-fluoro-phenyl]-(5-iodo-1H-pyrrolo[2,3-b]pyridin-3-yl)methanone]		< 0.1
CN(C)S(=O)(=O)Nc1cccc(C(=O)c2c[nH]c3ncc(-c4ccc(C(C)(C)C#N)cc4)cc23)c1F [Compound P-0245, 5-[4-(1-cyano-1-methyl-ethyl)phenyl]-3-[3-(dimethylsulfamoylamino)-2-fluoro-benzoyl]-1H-pyrrolo[2,3-b]pyridine]		< 0.1
CCN(C)S(=O)(=O)Nc1ccc(F)c(C(=O)c2c[nH]c3ncc(-c4cccc(N(C)C)c4)cc23)c1F [Compound P-0302, 5-[3-(dimethylamino)phenyl]-3-[3-[[ethyl(methyl)sulfamoyl]amino]-2,6-difluoro-benzoyl]-1H-pyrrolo[2,3-b]pyridine]		< 0.1
CNC1CCN(S(=O)(=O)Nc2cccc(C(=O)c3c[nH]c4ncc(-c5cnc(C6CC6)nc5)cc34)c2F)C1 (stereo not shown) [Compound P-0272, N-[3-[5-(2-cyclopropylpyrimidin-5-yl)-1H-pyrrolo[2,3-b]pyridine-3-carbonyl]-2-fluoro-phenyl]-3-(methylamino)pyrrolidine-1-sulfonamide]		> 0.1
CCCNS(=O)(=O)Nc1cccc(C(=O)c2c[nH]c3ncc(C)cc23)c1F [Compound P-0223, [2-fluoro-3-(propylsulfamoylamino)phenyl]-(5-methyl-1H-pyrrolo[2,3-b]pyridin-3-yl)methanone]		> 0.1

Now from value to compound:

IC50 [1] [µM]	IC50 [2] [µM]	Structure (SMILES)
< 1		CN(C)S(=O)(=O)Nc1ccc(F)c(C(=O)c2c[nH]c3ncc(-c4ccc(C5(C#N)CC5)cc4)cc23)c1F [Compound P-0237, 5-[4-(1-cyanocyclopropyl)phenyl]-3-[3-(dimethylsulfamoylamino)-2,6-difluoro-benzoyl]-1H-pyrrolo[2,3-b]pyridine]
< 1		N#CC1(c2ccc(-c3cnc4[nH]cc(C(=O)c5c(F)ccc(NS(=O)(=O)N6CCCC6)c5F)c4c3)cc2)CC1 [Compound P-0248, N-[3-[5-[4-(1-cyanocyclopropyl)phenyl]-1H-pyrrolo[2,3-b]pyridine-3-carbonyl]-2,4-difluoro-phenyl]pyrrolidine-1-sulfonamide]
< 1	< 0.1	CCN(C)S(=O)(=O)Nc1ccc(F)c(C(=O)c2c[nH]c3ncc(-c4cnc(N5CCCC5)nc4)cc23)c1F [Compound P-0293, 3-[3-[[ethyl(methyl)sulfamoyl]amino]-2,6-difluoro-benzoyl]-5-(2-pyrrolidin-1-ylpyrimidin-5-yl)-1H-pyrrolo[2,3-b]pyridine]
< 1	< 0.1	CN1CCN(c2cc(-c3cnc4[nH]cc(C(=O)c5c(F)ccc(NS(=O)(=O)N6CCCC6)c5F)c4c3)ccn2)CC1 [Compound P-0285, N-[2,4-difluoro-3-[5-[2-(4-methylpiperazin-1-yl)-4-pyridyl]-1H-pyrrolo[2,3-b]pyridine-3-carbonyl]phenyl]pyrrolidine-1-sulfonamide]
< 1	< 0.1	O=C(c1c(F)ccc(NS(=O)(=O)N2CCCC2)c1F)c1c[nH]c2ncc(-c3cnc(C4CC4)nc3)cc12 [Compound P-0241, N-[3-[5-(2-cyclopropylpyrimidin-5-yl)-1H-pyrrolo[2,3-b]pyridine-3-carbonyl]-2,4-difluoro-phenyl]pyrrolidine-1-sulfonamide]
< 1	< 0.1	O=C(c1c(F)ccc(NS(=O)(=O)N2CCCC2)c1F)c1c[nH]c2ncc(-c3cnc(N4CCC(O)CC4)nc3)cc12 [Compound P-0262, N-[2,4-difluoro-3-[5-[2-(4-hydroxy-1-piperidyl)pyrimidin-5-yl]-1H-pyrrolo[2,3-b]pyridine-3-carbonyl]phenyl]pyrrolidine-1-sulfonamide]
< 1		Nc1nccc(-c2cnc3[nH]cc(C(=O)c4c(F)ccc(NS(=O)(=O)N5CCCC5)c4F)c3c2)n1 [Compound P-0280, N-[3-[5-(2-aminopyrimidin-4-yl)-1H-pyrrolo[2,3-b]pyridine-3-carbonyl]-2,4-difluoro-phenyl]pyrrolidine-1-sulfonamide]
< 1		O=C(c1c(F)ccc(NS(=O)(=O)N2CCCC2)c1F)c1c[nH]c2ncc(-c3ccncc3)cc12 [Compound P-0273, N-[2,4-difluoro-3-[5-(4-pyridyl)-1H-pyrrolo[2,3-b]pyridine-3-carbonyl]phenyl]pyrrolidine-1-sulfonamide]
< 1		CCN(C)S(=O)(=O)Nc1ccc(F)c(C(=O)c2c[nH]c3ncc(-c4ccc(C5(C#N)CC5)cc4)cc23)c1F [Compound P-0239, 5-[4-(1-cyanocyclopropyl)phenyl]-3-[3-[[ethyl(methyl)sulfamoyl]amino]-2,6-difluoro-benzoyl]-1H-pyrrolo[2,3-b]pyridine]
< 1		O=C(c1c(F)ccc(NS(=O)(=O)N2CCCC2)c1F)c1c[nH]c2ncc(-c3ccnc(N4CCOCC4)c3)cc12 [Compound P-0284, N-[2,4-difluoro-3-[5-(2-morpholino-4-pyridyl)-1H-pyrrolo[2,3-b]pyridine-3-carbonyl]phenyl]pyrrolidine-1-sulfonamide]
	< 0.1	COc1ncc(-c2cnc3[nH]cc(C(=O)c4c(F)ccc(NS(=O)(=O)N5CCCC5)c4F)c3c2)s1 [Compound P-0270, N-[2,4-difluoro-3-[5-(2-methoxythiazol-5-yl)-1H-pyrrolo[2,3-b]pyridine-3-carbonyl]phenyl]pyrrolidine-1-sulfonamide]
	< 0.1	CN(C)S(=O)(=O)Nc1ccc(F)c(C(=O)c2c[nH]c3ncc(-c4ccc(C(C)(C)C#N)cc4)cc23)c1F [Compound P-0255, 5-[4-(1-cyano-1-methyl-ethyl)phenyl]-3-[3-(dimethylsulfamoylamino)-2,6-difluoro-benzoyl]-1H-pyrrolo[2,3-b]pyridine]
